Source: article PMC9945084, “Stimulation of natural killer cells with small molecule inhibitors of CD38 for the treatment of neuroblastoma” (Chemical Science, 2023)
Several values for one entry are separate records, joined by “and”; a condition that tells them apart may be missing. Equal entries are not always repeated.

What was measured:
CD38 hydrolase activity [1] = settings: cited from earlier work
[2] = molecular target: T1, human recombinant CD38 (hydrolase activity) (Homo sapiens, UniProt P28907); test: Human recombinant CD38 fluorometric enzyme assay, hydrolase activity (εNAD+); assay type: biochemical; settings: for remaining activity at 50 µM: 50.0 μM compound, 10 nM recombinant CD38, 10 μM εNAD+; for IC50: recombinant CD38 enzyme assay; for decrease in potency relative to hit compound 1: CD38 hydrolase IC50 versus 1
Protocol: Compounds were screened for inhibition against CD38 hydrolase activity in a human recombinant CD38 fluorometric assay. Recombinant CD38 was diluted in assay diluent (PBS, 0.02% Tween-20, pH 7.4) to a 4× working concentration (40 nM). Test compounds were diluted in assay diluent to a working concentration of 200 μM. Working CD38 (25.0 μL) and the 4× test compound (25.0 μL) were pipetted into a black 96-well microplate and incubated for 15 minutes at 25 °C on an orbital shaker. Following incubation, 20 μM εNAD^+ (50 μL) was pipetted into each well and fluorescence intensity was measured kinetically for 10 minutes (ex/em: 300/410 nm) using a Molecular Devices SpectraMax iD3 plate reader. Final concentrations of all components were: 10 nM recombinant CD38, 50 μM test compound (50 nM for control compound 3), and 10 μM εNAD^+. Means for data points at 1 minute 49 seconds were normalized to vehicle treated control. Values were expressed as percent remaining activity of CD38. Each assay was conducted in technical and experimental triplicate and compared to literature reported values of 14.

[3] = molecular target: T1, human recombinant CD38 (hydrolase activity); test: as above; assay type: biochemical; settings: 25 μM compound
SHSY5Y-GFP NB cells = test: SHSY5Y-GFP and PB NK cell co-culture assay with ch14.18-IL2; assay type: cell-based, human
Protocol: Following optimization, SHSY5Y-GFP cells were plated at 25 000 cells per well and incubated for 24 hours. PB NK cells stained with cell tracker deep red were added to SHSY5Y-GFP cells with 50 ng mL^−1 ch14.18-IL2 and treated with 2, 14 or vehicle control. Cells were incubated for 90 minutes at 37 °C and imaged using a BioTek Cytation 5 at 20× (Fig. 11A–C). Live SHSY5Y-GFP cells were quantitated by measuring the integrated GFP fluorescence intensity. After only 90 minutes treatment with a 1.0 μM concentration of 2 and 50 ng mL^−1 ch14.18-IL2a caused a 14 ± 3% decrease in SHSY5Y-GFP fluorescent area (Fig. 11B) relative to vehicle-treated control (Fig. 11A). […] Fig. 12 is a close-up view from a representative well showing the effects of 1 μM 2 combined with 50 ng mL^−1 ch14.18-IL2.
SHSY5Y-GFP NB cells were plated at a concentration of 25 000 cells per well (100 μL) for 12 hours on a black, clear-bottom, 96-well microplate. PB NK cells were washed with PBS and resuspended in 5 μM cell tracker deep red in RPMI 1640 without FBS for 30 minutes at 37 °C, 5% CO2. Following incubation, cells were washed with PBS and resuspended in RPMI 1640 supplemented with 10% FBS. Compounds were dissolved in DMSO and diluted to a 4 μM working solution with cell culture medium. […] The sum integration of GFP area was measured and normalized to vehicle-treated control. […]

[4] = tested on: Human PB NK cells (IFNγ secretion); test: Quantitation of IFNγ secreted by PB NK cells, 24 h (Lumit IFNγ assay); assay type: cell-based
Protocol: In light of the substantial change in viability/proliferation of PB NK cells following treatment with 2, changes in the ability of treated NK cells to secrete IFNγ were measured.[60,61] Human PB NK cells (purity > 90%) were added to a 96-well plate at a confluency of 49 000 cells per well in Immunocult-XF T cell expansion medium supplemented with 500 IU mL^−1 IL-2, 10 ng mL^−1 IL-15, and 0.2 μL mL^−1 CD2/CD3/CD28 T cell activator. These cells were exposed to varying concentrations of 2 or 14 for 24 hours, followed by quantification of IFNγ using a Lumit IFNγ assay kit (W6040, Promega, Madison, WI). Treatment groups were normalized to vehicle-treated control and data was expressed as percent change in IFNγ. As often happens, we encountered a wide variability in the response of human primary cells from different donors. […] Despite the variability in the magnitude of the IFNγ response, the trend in all 3 donors was a dose-dependent increase for both 2 and 14. Decreases in IFNγ expression at higher doses of both compounds in donors 2 and 3 may be due to modest cytotoxicity.
Human PB NK cells were plated at 49 000 cells per well (60 μL per well) on a white, clear-bottom, 96-well microplate in Immunocult-XF T cell expansion medium supplemented with 1× penicillin/streptomycin, 500 IU mL^−1 IL-2, 10 ng mL^−1 IL-15, 0.2 μL mL^−1 CD2/CD3/CD28 T cell activator. Test compounds were dissolved in DMSO and diluted to a 4× working solution. Working test compound was added to the cells (20 μL) and the cells were incubated at 37 °C, 5% CO2 for 24 hours. The last 3 columns on the microplate were left empty for IFNγ standards. The provided human IFNγ standard (10 μg mL^−1) was diluted to 10 000 pg mL^−1 using cell culture medium. The 10 000 pg mL^−1 solution was serially diluted 3.33-fold for a total of 7 standard concentrations. The IFNγ standards were plated (80 μL) in the empty columns (in triplicate) following incubation. A 5× solution of both antibodies was prepared by combining the Lumit Anti-hIFN-γ-mAb-LgBiT (24 μL) and the Lumit Anti-hIFN-γ-mAb-SmBiT (24 μL) with cell culture medium (2.4 mL). The 5× antibody solution (20 μL) was pipetted into each well. The microplate was briefly mixed for 15 seconds on a shaker at 250 rpm and incubated for 90 minutes at 37 °C, 5% CO2. Following incubation, the microplate was allowed to rest at 25 °C for 15 minutes. The Lumit detection substrate (160 μL) was diluted with Lumit detection buffer B (3040 μL) and pipetted into each well (25 μL). The microplate was allowed to incubate for 5 minutes at 25 °C and then the luminescence was measured using a Molecular Devices SpectraMax iD3 plate reader. A standard curve with averaged RLU measurements of the IFNγ concentrations was determined with GraphPad Prism using 4-parameter logistic curve fitting. […]

NAD+ levels = tested on: NAD+ levels; set-up: method as in PMID 35497564; settings: cited from earlier work
SHSY5Y-GFP cells = test: Proliferative effect on SHSY5Y-GFP cells alone, 24 h imaging; assay type: cell-based, human; settings: 1.0 μM, at both 20 000 and 30 000 cells per well
Protocol: SHSY5Y-GFP cells were plated at 20 000, 30 000, 40 000, and 50 000 cells per well with 6 test wells each. Cells were incubated for 24 hours and imaged with a BioTek Cytation 5 at 20× with 4 fields per well using brightfield and GFP channels. The data is presented as the sum of SHSY5Y-GFP cells in imaged fields as a function of cells per well (Fig. 9A). Optimal plating density was determined to be between 20 000 and 30 000 cells per well. Additionally, we wanted to rule out proliferative effects in SHSY5Y-GFP cells treated with 2. Cells were plated at 20 000 or 30 000 cells per well and treated with varying concentrations of 2 or vehicle control for 24 hours and imaged as described above. Data was then expressed as the sum of SHSY5Y-GFP cells in imaged fields as a function of the concentration of 2 (Fig. 9B).

[5] = tested on: donor 3 PB NK cells (IFNγ secretion); test: 20 day treatment of PB NK cells, IFNγ in supernatant (Lumit IFNγ assay); assay type: cell-based, human; settings: donor 3, fresh medium every 3 days, day 20
Protocol: The TME has the ability to down regulate NK cell activation and function, therefore it is important to discern whether inhibition of CD38 hydrolase activity over an extended period will improve NK cell activation and support a persistent response.[62] To address this question, donor 3 PB NK cells were plated on a 12-well plate at a confluency of 1 × 10^6 cells mL^−1 in Immunocult-XF T cell expansion medium supplemented with 500 IU mL^−1 IL-2, 10 ng mL^−1 IL-15, and 0.2 μL mL^−1 CD2/CD3/CD28 T cell activator. Cells were treated with vehicle control, 2, or 14. Cells were treated with fresh medium every 3 days over the course of 20 days. Cells from each treatment group were counted on the 20th day of treatment and viability determined using trypan blue. NK cells treated with 2 or 14 were normalized to vehicle control with the percent change in viable cells presented as a function of the treatment condition (Fig. 8A). We observed 43 ± 6% more viable cells in the group treated with 14 and 36 ± 13% more viable cells in the group treated with 2, relative to vehicle control. Additionally, on the 20th day of treatment the cell supernatant was collected and analyzed for IFNγ using the Promega Lumit IFNγ assay. Treatment groups were normalized to vehicle control and the data presented as IFNγ % difference as a function of treatment (Fig. 8B). […]

CD38 hydrolase activity [6] = tested on: CD38 hydrolase activity; set-up: method as in PMID 26864107; settings: cited from earlier work
CD38 cyclase activity = tested on: CD38 cyclase activity; set-up: method as in PMID 26864107; settings: cited from earlier work

T1 sequence (P28907 whole entry): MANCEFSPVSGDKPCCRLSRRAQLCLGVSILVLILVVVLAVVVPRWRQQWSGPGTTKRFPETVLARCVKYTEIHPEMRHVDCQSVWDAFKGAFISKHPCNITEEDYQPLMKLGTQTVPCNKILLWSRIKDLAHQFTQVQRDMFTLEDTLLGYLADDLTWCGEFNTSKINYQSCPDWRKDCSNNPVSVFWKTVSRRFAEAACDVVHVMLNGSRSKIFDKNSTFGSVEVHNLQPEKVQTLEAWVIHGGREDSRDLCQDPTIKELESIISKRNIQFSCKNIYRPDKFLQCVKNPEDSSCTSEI

Question: With CC1=CC(C)(C)N=C(Nc2nc(C)c3cc(C)cc(C)c3n2)N1 [Compound 1] as the compound, how does the “mode of inhibition of CD38 hydrolase activity” value (CD38 hydrolase activity [1]) read?
Answer: The value was “mixed inhibition”.

Question: And the remaining activity at 50 µM [2]?
Answer: Its remaining activity at 50 µM is 61.6 ± 2%.

Question: What about the IC50 [2] of the same compound?
Answer: Its IC50 is 4.2 ± 0.5 µM.

Question: What does the source list for COc1cc(C)cc2c(C)nc(NC3=NC(C)(C)C=C(C)N3)nc12 [Compound 2, 8-Methoxy-4,6-dimethyl-N-(4,4,6-trimethyl-1,4-dihydropyrimidin-2-yl)quinazolin-2-amine]?
Answer: remaining activity at 25 µM [3]: 5.6 ± 0.8%; decrease in SHSY5Y-GFP fluorescent area relative to vehicle-treated control (SHSY5Y-GFP NB cells; 1.0 μM + 50 ng mL−1 ch14.18-IL2, 90 minutes, effector : target 1 : 1): 14% and 14 ± 3%; increase in IFNγ, donor 1 ([4]; donor 1, 1.0 μM): 759 ± 45%; increase in IFNγ, donor 2 ([4]; donor 2, 0.111 μM): 100 ± 29%; increase in IFNγ, donor 3 ([4]; donor 3, 0.037 μM): 18 ± 2%; IC50 [2]: 1.9 ± 0.1 µM; change in NAD+ levels (NAD+ levels): significant increases; cell number difference between vehicle-treated and treated SHSY5Y-GFP cells (SHSY5Y-GFP cells): < 4%; more IFNγ secreted relative to vehicle control [5]: 20 ± 1%

Question: For CC1=CC(C)(C)N=C(Nc2nc(C)c3cccc(C)c3n2)N1 [Compound 3], which remaining activity at 50 µM [2] is on record?
Answer: The remaining activity at 50 µM was 41 ± 0.03%.

Question: And the “decrease in potency relative to hit compound 1” value [2]?
Answer: Its value is 2 fold.

Question: And the IC50 [2]?
Answer: The IC50 was 8.4 ± 0.7 µM.

Question: With Cc1cc(C)c2nc(Nc3nc(C)c(C)c(O)n3)nc(C)c2c1 [Compound 4] as the compound, how does the remaining activity at 50 µM [2] read?
Answer: Its remaining activity at 50 µM is 58.2 ± 1.4%.

Question: And the IC50 [2]?
Answer: The IC50 was 5.1 ± 0.9 µM.

Question: What does the source list for CCOc1ccc2nc(Nc3nc(=O)c(Cc4ccccc4)c(C)[nH]3)nc(C)c2c1 [Compound 5]?
Answer: remaining activity at 50 µM [2]: 57 ± 0.3%; decrease in potency relative to hit compound 1 [2]: 2 fold; IC50 [2]: 8 µM and 8.3 µM

Question: Which remaining activity at 50 µM [2] does the source give for Cc1nc(NC2=NCCC(=O)N2)nc2ccccc12 [Compound 6] here?
Answer: Its remaining activity at 50 µM is 66.8 ± 0.6%.

Question: What does the source list for Cc1nc(Nc2nc(CCC(C)C)cc(=O)[nH]2)nc2ccccc12 [Compound 7]?
Answer: remaining activity at 50 µM [2]: 60.3 ± 0.7%; IC50 [2]: 4 ± 0.9 µM

Question: Which remaining activity at 25 µM [3] does the source give for Cc1nc(NC2=NCN(CCN3CCOCC3)CN2)nc2c(C)cccc12 [Compound 9] here?
Answer: The remaining activity at 25 µM was 65.3 ± 0.6%.

Question: With CC1=CC(C)(C)N=C(Nc2nc(-c3ccccc3)c3cc(C)cc(C)c3n2)N1 [Compound 11] as the compound, how does the remaining activity at 50 µM [2] read?
Answer: Its remaining activity at 50 µM is 49.1 ± 2.2%.

Question: What about the “decrease in potency relative to hit compound 1” value [2] of the same compound?
Answer: The value was 5 fold.

Question: And the IC50 [2]?
Answer: Its IC50 is 23 µM and 23.8 µM.

Question: For CC1=NC(Nc2nc(C)c3cc(C)cc(C)c3n2)=NC(C)(C)C1 [Compound 12], which remaining activity at 50 µM [2] is on record?
Answer: The remaining activity at 50 µM was 52 ± 9.6%.

Question: What about the “decrease in potency relative to hit compound 1” value [2] of the same compound?
Answer: The value was ~3 fold.

Question: Which results are given for CCc1ccc2c(C)nc(NC3=NC(C)(C)C=C(C)N3)nc2c1 [Compound 13]?
Answer: remaining activity at 50 µM [2]: 48.1 ± 6.8%; IC50 [2]: 22.4 ± 1.1 µM

Question: Which “difference in SHSY5Y-GFP cells versus vehicle-treated control, in words” value (SHSY5Y-GFP NB cells; 1 μM + 50 ng mL−1 ch14.18-IL2, 90 minutes) does the source give for COCCO[C@H]1CC[C@H](Nc2cc(=O)n(C)c3ccc(-c4cncs4)cc23)CC1 [Compound 14, reference compound] here?
Answer: The value was “not a statistically significant difference”.

Question: And the “increases in IFNγ levels, in words” value ([4]; all 3 donors)?
Answer: The value was “similaer to the effects of 2”.

Question: And the “mode of inhibition of CD38” value (CD38 hydrolase activity [1])?
Answer: The value was “mixed inhibition”.

Question: What about the remaining activity at 0.05 µM ([2]; positive control 14, used at 50.0 nM according to b14 and b58) of the same compound?
Answer: Its remaining activity at 0.05 µM is 60.3 ± 1.8%.

Question: And the IC50 [2]?
Answer: The IC50 was 0.078 ± 0.03 µM.

Question: What about the “change in NAD+ levels” value (NAD+ levels) of the same compound?
Answer: Its value is “significant increases”.

Question: What about the “more IFNγ secreted relative to vehicle control” value [5] of the same compound?
Answer: Its value is 23 ± 2%.

Question: With daratumumab as the compound, how does the “effect on CD38 hydrolase activity” value (CD38 hydrolase activity [6]) read?
Answer: The value was “enhances CD38 hydrolase activity”.

Question: What about the “effect on CD38 cyclase activity” value (CD38 cyclase activity) of the same compound?
Answer: Its value is “modest inhibitory activity”.
